The text below walks through data of PubChem BioAssay (NCI).

Where “and” joins values, the source holds several entries; their conditions need not be identical. Equal entries are not always repeated.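 Five concentrations, 48 hours, 96-well plates. Here, GI50 denotes the concentration required for 50% inhibition of growth. TGI is the concentration that stops growth completely.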 Numbered stars: 1 amine (or outer) side, 2 acyl side, 3 side chain; on linkers, the order of the positions; unused ones are H or OH. Bridge positions count the residues as written; N and C are the ends. Square brackets hold non-standard residues; d marks the D form. Peptide text beside a SMILES is read from it. I, II: the chains in the order shown. Actinocin(1to9) = Cc1c2oc3c(C)ccc(C(=O)[*:2])c3nc-2c(C(=O)[*:1])c(N)c1=O; NMeY = CN[CH](Cc1ccc(O)cc1)C(=O)O; Sar = CNCC(=O)O

Test systems include NCI-H226 lung; NCI-H522 lung; SW-620 colon; NCI-H23 lung; SF-539 CNS; OVCAR-3 ovarian; NCI-H460 lung; 786-0 renal; HOP-92 NSCLC.
Common to all, as to test: inhibition of tumour cell growth, NCI panel, 48 h

For `CO[C@@]1(c2ccccc2)O[C@H]2OCCC2[C@H]1c1ccc(Cl)cc1` (some centres not stated), the TGI is > 100 µM in the assay on NCI-H226 lung; 67.9 µM in the assay with NCI-H522 lung; > 100 µM in the assay on SW-620 colon; 81.6 µM in the assay with NCI-H23 lung; > 100 µM with SF-539 CNS; 49.7 µM with OVCAR-3 ovarian. For the same molecule, the TGI in the assay with NCI-H460 lung was 57.8 µM; in the assay with 786-0 renal, > 100 µM.
`C=C1C[C@@H]2C[C@@H](C)CC(O)[C@]2(CCCN)C1O` (some centres not stated): the TGI with NCI-H226 lung, in the assay with NCI-H522 lung, in the assay with SW-620 colon, in the assay with NCI-H23 lung, in the assay with SF-539 CNS and with OVCAR-3 ovarian was > 100 µM throughout. For the same molecule, the TGI in the assay with NCI-H460 lung, with 786-0 renal and in the assay on HOP-92 NSCLC was > 100 µM in each case.
As to `COc1ccc(OC(C)C(=O)O)c2c(=O)ccccc12` (configuration not stated), the TGI with NCI-H226 lung, in the assay on NCI-H522 lung, in the assay on SW-620 colon, in the assay on NCI-H23 lung, with SF-539 CNS and in the assay on OVCAR-3 ovarian was > 100 µM in each case. In addition, the TGI in the assay with NCI-H460 lung and in the assay with 786-0 renal was > 100 µM throughout.
For `CCC(CO)Nc1nc2c(c(=O)n(C)c(=O)n2C)n1CCO` (configuration not stated), the TGI with NCI-H226 lung, with SW-620 colon, in the assay on NCI-H23 lung, in the assay on SF-539 CNS, with OVCAR-3 ovarian and with 786-0 renal was > 100 µM each time. Moreover, the TGI in the assay with HOP-92 NSCLC is > 100 µM.
In the case of `C1=CCCC=CCC1.C[PH+](C)C.C[PH+](C)C.C[PH+](C)C.[Cl-].[Ir]`, the GI50 in the assay on NCI-H522 lung was 26.4 µM; in the assay on SW-620 colon it was 36.4 µM; with NCI-H23 lung, > 100 µM; in the assay with SF-539 CNS, > 100 µM; with OVCAR-3 ovarian it was 29.6 µM; in the assay on NCI-H460 lung, 77.9 µM. The GI50 is > 100 µM with 786-0 renal and 28.6 µM with HOP-92 NSCLC. In addition, the TGI with NCI-H522 lung is 60.1 µM; in the assay on SW-620 colon, > 100 µM; in the assay on NCI-H23 lung, > 100 µM; with SF-539 CNS it was > 100 µM; in the assay on OVCAR-3 ovarian, 77.4 µM; in the assay with NCI-H460 lung it was > 100 µM. Moreover, the TGI in the assay with 786-0 renal is > 100 µM; in the assay on HOP-92 NSCLC it was 98.8 µM.
`COc1ccc([C@@H]2OC(=O)C3C2C(=O)O[C@H]3c2ccc(OC)c(OC)c2)cc1OC` (some centres not stated): the TGI in the assay on NCI-H226 lung, in the assay on NCI-H522 lung, with SW-620 colon, with NCI-H23 lung, in the assay on SF-539 CNS and in the assay with OVCAR-3 ovarian was > 100 µM throughout. In addition, the TGI with NCI-H460 lung, in the assay with 786-0 renal and in the assay on HOP-92 NSCLC was > 100 µM in each case.
Consider `COc1cc2cnc3c4cc(OCc5ccccc5)ccc4ccc3c2cc1OC`, for which the TGI in the assay with NCI-H226 lung was 72.6 µM; in the assay with NCI-H522 lung, > 100 µM; with SW-620 colon it was > 100 µM; in the assay on NCI-H23 lung it was 75.7 µM; in the assay on SF-539 CNS it was > 100 µM; with OVCAR-3 ovarian it was > 100 µM. The TGI in the assay with NCI-H460 lung is > 100 µM; in the assay on 786-0 renal, 44.5 µM; in the assay with HOP-92 NSCLC, > 100 µM.
In the case of `COc1cc(/C=N/N=C(\N)NO)c([N+](=O)[O-])cc1OC`, the TGI in the assay on NCI-H226 lung was 54.4 µM; in the assay on NCI-H522 lung, 34.4 µM; in the assay with SW-620 colon it was > 100 µM; in the assay on NCI-H23 lung, 99.4 µM; in the assay on SF-539 CNS, > 100 µM; with OVCAR-3 ovarian it was > 100 µM. The results for the TGI in the assay with NCI-H460 lung, with 786-0 renal and in the assay on HOP-92 NSCLC were > 100 µM, > 100 µM and 91.7 µM, respectively.
Take `NC(=O)c1ccc(Cl)c([N+](=O)[O-])c1`: the TGI with NCI-H226 lung, in the assay with NCI-H522 lung, with SW-620 colon, in the assay on NCI-H23 lung, with SF-539 CNS and in the assay with OVCAR-3 ovarian was > 100 µM in each case. Further, the TGI in the assay with NCI-H460 lung, in the assay on 786-0 renal and with HOP-92 NSCLC was > 100 µM in each case.
With `COC(=O)CC[C@]12C[C@]13CC[C@]1(C)C4C(C)C[C@]5(CC(C)C(=O)O5)OC4CC1(C)C3CCC2C(C)(C)O` (some centres not stated), the TGI in the assay with NCI-H522 lung, with SW-620 colon, with NCI-H23 lung, with SF-539 CNS, with OVCAR-3 ovarian and in the assay with NCI-H460 lung was > 100 µM in each case. The results for the TGI in the assay with 786-0 renal and in the assay on HOP-92 NSCLC were > 100 µM and 65.1 µM, respectively.
For `COC(=O)C1CCc2nnc(-c3ccccc3)n21` (configuration not stated), the TGI with NCI-H226 lung, in the assay with NCI-H522 lung, with SW-620 colon, in the assay on NCI-H23 lung, in the assay with SF-539 CNS and in the assay on OVCAR-3 ovarian was > 100 µM each time. The TGI in the assay on NCI-H460 lung, with 786-0 renal and with HOP-92 NSCLC was > 100 µM in each case.
Regarding `O=c1c2cc3ccccc3n2c(=O)c2cc3ccccc3n12`, the TGI in the assay with NCI-H226 lung, with NCI-H522 lung, with SW-620 colon, with NCI-H23 lung, with SF-539 CNS and with OVCAR-3 ovarian was > 100 µM in each case. Also, the TGI with NCI-H460 lung, in the assay on 786-0 renal and with HOP-92 NSCLC was > 100 µM each time.
Turning to `COc1ccc(CC2C(=O)OC(C)C(NC(=O)c3c4nc5c(C(=O)NC6C(=O)NC(C(C)C)C(=O)N7CCCC7C(=O)N(C)CC(=O)N(C)C(Cc7ccc(OC)cc7)C(=O)OC6C)ccc(C)c5oc-4c(C)c(=O)c3N)C(=O)NC(C(C)C)C(=O)N3CCCC3C(=O)N(C)CC(=O)N2C)cc1` (configuration not stated) (I: TVP[Sar][NMeY](Me) / II: TVP[Sar][NMeY](Me); ester I:1-I:C, II:1-II:C; linker I:N-II:N via Actinocin(1to9); configuration not given here), the TGI with NCI-H226 lung was > 0.213 µM; in the assay on NCI-H522 lung it was 0.018 µM; in the assay on NCI-H460 lung, < 0.01 µM; in the assay on 786-0 renal, > 1 µM. Besides, the GI50 in the assay with NCI-H522 lung is 0.00264 µM; in the assay on NCI-H460 lung, < 0.01 µM; in the assay with 786-0 renal it was < 0.0333 µM and 0.00694 µM; in the assay on HOP-92 NSCLC, < 0.01 µM and 0.035 µM.
For `CC(=O)[O-].N.N.N.N.[Co+3].[O-][Cl+3]([O-])([O-])[O-].[OH3+]`, the GI50 in the assay on NCI-H522 lung was 49.5 µM; in the assay on SW-620 colon, > 100 µM; in the assay on NCI-H23 lung it was > 100 µM; in the assay on OVCAR-3 ovarian, > 100 µM; in the assay on NCI-H460 lung, > 100 µM; with 786-0 renal, > 100 µM. Besides, the GI50 in the assay on HOP-92 NSCLC was > 100 µM. Further, the TGI with NCI-H522 lung, with SW-620 colon, in the assay with NCI-H23 lung, with OVCAR-3 ovarian, in the assay on NCI-H460 lung and in the assay with 786-0 renal was > 100 µM each time. Also, in the assay with HOP-92 NSCLC, the TGI was > 100 µM.
